Legend:
[1] = Viscosity response: fluorescence in glycerin vs methanol (Test Example 1); assay type: physicochemical; details: final concentration 1×10^−5 M; for Glycerin/Methanol Fluorescence Intensity Ratio: excited at maximum excitation wavelength of each dye; for Maximum Excitation Wavelength (nm): glycerin and methanol
[2] = Fluorescence emission at different viscosity conditions, diethanol-glycerol mixed solution (Test Example 2); assay type: physicochemical; details: 1×10^−5 M, excited at 480 nm
RNA aptamer [3] = assay: Optical properties after binding to RNA aptamer (Test Example 4); assay type: biochemical; details: for Em/nm / Ex/nm / ε / QY (−): after binding to RNA aptamer; for QY (−): relative method with Rhodamine 6G as the standard; for compound fluorescence after binding to RNA aptamer: excited at a suitable wavelength
RNA aptamer [4] = assay: Labeling intracellular RNA aptamer in cells (Test Example 4, FIG. 20A/20B); assay type: cell-based; details: for fluorescence of cells expressing the RNA aptamer: FIG. 20A; for fluorescence of cells not expressing the RNA aptamer: FIG. 20B
Excerpt: FIGS. 20A and 20B are the application of molecular rotors IV-1, IV-2, IV-3, IV-4, IV-5, IV-6, IV-17, IV-18, IV-19, IV-20, IV-21, IV-22 in labeling intracellular RNA aptamer, wherein FIG. 20A are cells expressing the target RNA aptamer, and FIG. 20B are cells not expressing the target RNA aptamer;

SMILES	Glycerin/Methanol Fluorescence Intensity Ratio [1]	Maximum Excitation Wavelength (nm) [1]	fluorescence intensity at different viscosity conditions [2]	Em/nm (RNA aptamer [3])	Ex/nm (RNA aptamer [3])	ε (RNA aptamer [3])	QY (−) (RNA aptamer [3])	compound fluorescence after binding to RNA aptamer (RNA aptamer [3])	fluorescence of cells expressing the RNA aptamer (RNA aptamer [4])	fluorescence of cells not expressing the RNA aptamer (RNA aptamer [4])
CN1C(=O)/C(=C/c2cc(F)c(O)c(F)c2)N=C1/C=C/c1ccc(C#N)cc1 [IV-1]	987	618 nm	gradually increasing fluorescence intensity	618 nm	510 nm	20667 M⁻¹ cm⁻¹	0.17	noticeably activated	bright fluorescence	no fluorescence
CN1C(=O)/C(=C/c2cc(F)c(O)c(F)c2)N=C1/C=C/c1cccc(C#N)c1 [IV-2]	687	595 nm	gradually increasing fluorescence intensity	595 nm	492 nm	25000 M⁻¹ cm⁻¹	0.36	noticeably activated	bright fluorescence	no fluorescence
CN1C(=O)/C(=C/c2cc(F)c(O)c(F)c2)N=C1/C=C/c1ccc(O)cc1 [IV-3]	951	565 nm	gradually increasing fluorescence intensity	565 nm	490 nm	26000 M⁻¹ cm⁻¹	0.27	noticeably activated	bright fluorescence	no fluorescence
CN1C(=O)/C(=C/c2cc(F)c(O)c(F)c2)N=C1/C=C/c1cccc(O)c1 [IV-4]	687	574 nm	gradually increasing fluorescence intensity	574 nm	490 nm	23333 M⁻¹ cm⁻¹	0.37	noticeably activated	bright fluorescence	no fluorescence
CN1C(=O)/C(=C/c2cc(F)c(O)c(F)c2)N=C1/C=C/c1ccc(F)cc1 [IV-5]	861	570 nm	gradually increasing fluorescence intensity	570 nm	492 nm	23000 M⁻¹ cm⁻¹	0.33	noticeably activated	bright fluorescence	no fluorescence
CN1C(=O)/C(=C/c2cc(F)c(O)c(F)c2)N=C1/C=C/c1cccc(F)c1 [IV-6]	921	578 nm	gradually increasing fluorescence intensity	578 nm	490 nm	24000 M⁻¹ cm⁻¹	0.37	noticeably activated	bright fluorescence	no fluorescence
CN1C(=S)/C(=C/c2cc(F)c(O)c(F)c2)N=C1/C=C/c1ccc(F)cc1 [IV-7]	873	570 nm								
CN1C(=S)/C(=C/c2cc(F)c(O)c(F)c2)N=C1/C=C/c1ccc(C#N)cc1 [IV-8]	861	638 nm								
CN1C(=O)/C(=C/c2ccc(O)c(F)c2)N=C1/C=C/c1ccc(C#N)cc1 [IV-9]	697	615 nm								
CCN1C(=O)/C(=C/c2cc(F)c(O)c(Cl)c2)N=C1/C=C/c1ccc(C#N)cc1 [IV-10]	779	620 nm								
CCCN1C(=O)/C(=C/c2cc(F)c(O)c(I)c2)N=C1/C=C/c1ccc(Cl)cc1 [IV-12]	898	573 nm								
CN1C(=O)/C(=C/c2cc(Cl)c(O)c(Cl)c2)N=C1/C=C/c1ccc(Br)cc1 [IV-13]	711	590 nm								
CCN1C(=O)/C(=C/c2ccc(O)c(Cl)c2)N=C1/C=C/c1ccc(I)cc1 [IV-14]	699	585 nm								
CN1C(=O)/C(=C/c2ccc(O)c(Br)c2)N=C1/C=C/c1cccc(Cl)c1 [IV-15]	730	586 nm								
O=C1NC(/C=C/c2ccc(Br)cc2)=NC/1=C\c1cc(Cl)c(O)c(Cl)c1 [IV-16]	689	595 nm								
CN1C(=O)/C(=C/c2ccc(N(C)CCO)cc2)N=C1/C=C/c1cccc(O)c1 [IV-17]	655	575 nm	gradually increasing fluorescence intensity	582 nm	524 nm	32000 M⁻¹ cm⁻¹	0.47	noticeably activated	bright fluorescence	no fluorescence
CN1C(=O)/C(=C/c2ccc(N(C)CCO)cc2)N=C1/C=C/c1cccc(C#N)c1 [IV-18]	890	595 nm	gradually increasing fluorescence intensity	600 nm	536 nm	25000 M⁻¹ cm⁻¹	0.43	noticeably activated	bright fluorescence	no fluorescence

SMILES	Glycerin/Methanol Fluorescence Intensity Ratio [1]	Maximum Excitation Wavelength (nm) [1]	fluorescence intensity at different viscosity conditions [2]	Em/nm (RNA aptamer [3])	Ex/nm (RNA aptamer [3])	ε (RNA aptamer [3])	QY (−) (RNA aptamer [3])	compound fluorescence after binding to RNA aptamer (RNA aptamer [3])	fluorescence of cells expressing the RNA aptamer (RNA aptamer [4])	fluorescence of cells not expressing the RNA aptamer (RNA aptamer [4])
CN1C(=O)/C(=C/c2ccc(N(C)CCO)cc2)N=C1/C=C/c1cccc(F)c1 [IV-19]	821	577 nm	gradually increasing fluorescence intensity	590 nm	522 nm	30000 M⁻¹ cm⁻¹	0.43	noticeably activated	bright fluorescence	no fluorescence
C=CCOCCN(C)c1ccc(/C=C2N=C(/C=C/c3ccccc3C#N)N(C)C\2=S)cc1 [IV-23]	915	617 nm								
CCCN1C(=S)/C(=C/c2ccc(N(C)C)nc2)N=C1/C=C/c1ccccc1F [IV-24]	934	551 nm								
CCCCCCN(CCCCCC)c1cnc(/C=C2N=C(/C=C/c3cccc(Cl)c3)N(C)C\2=O)cn1 [IV-25]	918	591 nm								
CN1C(=O)/C(=C/c2cnc(N(C)CCC#N)nc2)N=C1/C=C/c1ccccc1I [IV-26]	937	555 nm								
CCCN1C(=O)/C(=C/c2cc3c4c(c2)CCCN4CCC3)N=C1/C=C/c1ccc(C#N)cc1 [IV-27]	890	600 nm								
CN1C(=O)/C(=C/c2ccc(N(C)CCS(=O)(=O)O)cc2)N=C1/C=C/c1ccc(C#N)cc1 [IV-28]	942	620 nm								
COCCOCCOCCOCC(=O)OCCN(C)c1ccc(/C=C2N=C(/C=C/c3ccc(C#N)cc3)N(C)C\2=O)cc1 [IV-29]	829	618 nm								
COC(=O)CNCCN(C)c1ccc(/C=C2N=C(/C=C/c3ccc(Br)cc3)N(C)C\2=O)cc1 [IV-30]	921	582 nm								
CN1C(=O)/C(=C/c2ccc(N(C)CCN)cc2)N=C1/C=C/c1cccc(F)c1 [IV-31]	902	581 nm								
CN(C)CCN(C)c1ccc(/C=C2N=C(/C=C/c3cccc(F)c3)N(C)C\2=O)cc1 [IV-32]	999	580 nm								
CC1=CC(C)(C)N(C)c2ccc(/C=C3N=C(/C=C/c4ccc(C#N)cc4)N(C)C\3=O)cc21 [IV-33]	729	605 nm								
CN1C(=O)/C(=C/c2ccc3c(c2)OCCN3C)N=C1/C=C/c1ccc(F)cc1 [IV-34]	810	603 nm								
CN1C(=O)/C(=C/c2ccc(N)cc2)N=C1/C=C/c1ccc(C#N)cc1 [IV-35]	776	561 nm								
CN1C(=O)/C(=C/c2ccc3cc(N(C)CCO)ccc3c2)N=C1/C=C/c1cccc(O)c1 [IV-36]	792	690 nm								
C#CCOCCN(C)c1ccc(/C=C2N=C(/C=C/c3ccc(F)cc3)N(C)C\2=O)cc1 [IV-37]	801	580 nm								
CN1C(=O)/C(=C/c2cnc3cc(N(C)C)ccc3c2)N=C1/C=C/c1cccc(C#N)c1 [IV-38]	529	705 nm								
